In patent US20240327393A1 (SIRONAX LTD., priority 2021, published 2024) one finds EC50 data, which are given here for 36 compounds.

The first assay deals with HT-1080 (ATCC, CCL-121) cells. Nature of the assay: HT-1080 cell viability assay with ferroptosis inducer RSL3 (Cell Titer-Glo). Type of assay: cell-based. As to conditions: HT-1080 cells treated with RSL3; 3-fold, 10-point dilution, 1.1 μM highest concentration; Table 2; read-out: EC50 (nM), ferroptosis inhibitory activity. In outline:
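HT-1080 cells (6000 per well) were cultured overnight at 37 °C, then co-treated with RSL3 and compound in a 3-fold, 10-point series topping at 1.1 μM. Viability was read by CellTiter-Glo luminescence and normalized to untreated controls. EC50 came from a sigmoidal non-linear regression fit.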
A general note: ATP-based viability assays read luminescence as a measure of living cells.
In the case of `CC1CN(c2ccc(Nc3ccc4c(c3)OC(C)C(=O)N4)cc2)CC(C)O1` (stereo not drawn) [Compound 144, 7-((4-(2,6-dimethylmorpholino)phenyl)amino)-2-methyl-2H-benzo[b][1,4]oxazin-3(4H)-one], the EC50 – broadly, the concentration giving half of the maximal effect – is 0.1 to 100 nM.

The same assay, now with this note: Homo sapiens; HT-1080 cells treated with RSL3; 3-fold, 10-point dilution, 1.1 μM highest concentration; Table 2; read-out: EC50 (nM), ferroptosis inhibitory activity.
For the compound `CC1CN(c2ccc(Nc3ccc4c(c3)OCC(=O)N4C)cc2N(C)C)CC(C)O1` (stereo not drawn) [Compound 20, 7-((3-(dimethylamino)-4-(2,6-dimethylmorpholino)phenyl)amino)-4-methyl-2H-benzo[b][1,4]oxazin-3(4H)-one], the EC50 lay within 0.1 to 100 nM.
The same measure, in the same setting: the figure for `CN1CCN(CC(=O)N2CCc3cc(Nc4ccccc4)ccc3C2)CC1` [Compound 107, 2-(4-methylpiperazin-1-yl)-1-(6-(phenylamino)-3,4-dihydroisoquinolin-2(1H)-yl)ethan-1-one] is 0.1 to 100 nM.
The same measure, in the same setting: under `Cn1c(=O)n(C)c2cc(Nc3ccc(N4CCC(C)(O)CC4)cc3)ccc21` [Compound 341, 5-((4-(4-hydroxy-4-methylpiperidin-1-yl)phenyl)amino)-1,3-dimethyl-1,3-dihydro-2H-benzo[d]imidazol-2-one] stands 0.1 to 100 nM; under `CNCCCn1c(=O)oc2ccc(Nc3ccc(N4CC(C)OC(C)C4)cc3)cc21` (stereo not drawn) [Compound 416], 0.1 to 100 nM.
Same read-out and setting: under `CN1Cc2cc(Nc3ccc(N4CC(C)(C)C4)cc3)ccc2C1=O` [Compound 223, 5-((4-(3,3-dimethylazetidin-1-yl)phenyl)amino)-2-methylisoindolin-1-one] stands 0.1 to 100 nM.
Consider `O=C1c2ccc(Nc3ccc(N4CCC(C(F)(F)F)CC4)cc3)cc2CN1Cc1ccccc1` [Compound 199, 2-benzyl-5-((4-(4-(trifluoromethyl)piperidin-1-yl)phenyl)amino) isoindolin-1-one], for which the EC50 lay in the range of 0.1 to 100 nM.
Same read-out and setting: the figure for `Cn1ccc2cc(Nc3ccc(N4CCC(C(F)(F)F)CC4)cc3)ccc21` [Compound 347, 1-methyl-N-(4-(4-(trifluoromethyl)piperidin-1-yl)phenyl)-1H-indol-5-amine] is 0.1 to 100 nM; for `CC1CN(c2ncc(Nc3ccc4c(c3)OCC(=O)N4C)cn2)CC(C)O1` (stereo not drawn) [Compound 66, 7-((2-(2,6-dimethylmorpholino)pyrimidin-5-yl)amino)-4-methyl-2H-benzo[b][1,4]oxazin-3(4H)-one] it is 0.1 to 100 nM.
Still for that read-out and setting: under `CCN1Cc2ccc(Nc3ccc(N4CCC(C)CC4)cc3)cc2C1` [Compound 176, 2-ethyl-N-(4-(4-methylpiperidin-1-yl)phenyl)isoindolin-5-amine] stands 0.1 to 100 nM; under `CC1CN(c2ccc(Nc3ccc4c(c3)OCCN4C)cc2)CC(C)O1` (stereo not drawn) [Compound 60, N-(4-(2,6-dimethylmorpholino)phenyl)-4-methyl-3,4-dihydro-2H-benzo[b][1,4]oxazin-7-amine], 0.1 to 100 nM.
The same measure, in the same setting: under `CN1Cc2cc(Nc3ccc(N4CC5(CCCC5)C4)cc3)ccc2C1=O` [Compound 246, 5-((4-(2-azaspiro[3.4]octan-2-yl)phenyl)amino)-2-methylisoindolin-1-one] stands 0.1 to 100 nM.
In the case of `CNCCn1c(=O)n(C)c2cc(Nc3ccc(N4CC(C)OC(C)C4)cc3)ccc21` (stereo not drawn) [Compound 436, 5-((4-(2,6-dimethylmorpholino)phenyl)amino)-3-methyl-1-(2-(methylamino)ethyl)-1H-benzo[d]imidazol-2(3H)-one], the EC50 is 0.1 to 100 nM.
The same measure, in the same setting: the figure for `Cn1c(=O)n(C)c2cc(Nc3ccc(C(F)(F)F)cc3)ccc21` [Compound 404, 1,3-dimethyl-5-((4-(trifluoromethyl)phenyl)amino)-1,3-dihydro-2H-benzo [d]imidazol-2-one] is 0.1 to 100 nM.
On the same count and under the same terms, under `NC(=O)CCn1cc2cc(Nc3ccc(N4CCC(C(F)(F)F)CC4)cc3)ccc2n1` [Compound 413, 3-(5-((4-(4-(trifluoromethyl)piperidin-1-yl)phenyl)amino)-2H-indazol-2-yl)propanamide] stands 0.1 to 100 nM.
The same measure, in the same setting: the figure for `CC(C)(C)C(=O)N1Cc2ccc(Nc3ccc(N4CCC(C(F)(F)F)CC4)cc3)cc2C1` [Compound 181, 2,2-dimethyl-1-(5-((4-(4-(trifluoromethyl)piperidin-1-yl)phenyl)amino)isoindolin-2-yl)propan-1-one] is 0.1 to 100 nM; for `CN1Cc2cc(Nc3ccc(N(C)C)cc3)ccc2C1=O` [Compound 227, 5-((4-(dimethylamino)phenyl)amino)-2-methylisoindolin-1-one] it is 0.1 to 100 nM.
As to `FC(F)(F)C1CCN(c2ccc(Nc3ccc4cn[nH]c4c3)cc2)CC1` [Compound 366, N-(4-(4-(trifluoromethyl)piperidin-1-yl)phenyl)-1H-indazol-6-amine], the EC50 lay within 0.1 to 100 nM.
With `CN1C(=O)C(C)(C)c2ccc(Nc3ccc(N4CCC(C(F)(F)F)CC4)cc3)cc21` [Compound 335, 1,3,3-trimethyl-6-((4-(4-(trifluoromethyl)piperidin-1-yl)phenyl)amino) indolin-2-one], the EC50 lay in the range of 0.1 to 100 nM.
On the same count and under the same terms, the figure for `CC1CN(c2ccc(Nc3cnc4c(c3)OCC(=O)N4C)cc2)CC(C)O1` (stereo not drawn) [Compound 76, 7-((4-(2,6-dimethylmorpholino)phenyl)amino)-4-methyl-2H-pyrido[3,2-b][1,4]oxazin-3(4H)-one] is 0.1 to 100 nM; for `O=C1CCc2cc(Nc3ccc(N4CCC(C(F)(F)F)CC4)cc3)ccc2N1` [Compound 158, 6-((4-(4-(trifluoromethyl)piperidin-1-yl)phenyl)amino)-3,4-dihydroquinolin-2(1H)-one] it is 0.1 to 100 nM; for `Cn1c(N(CC2CC2)CC2CC2)cc2ccc(Nc3ccc(N4CCC(C(F)(F)F)CC4)cc3)cc21` [Compound 397, N2,N2-bis(cyclopropylmethyl)-1-methyl-N6-(4-(4-(trifluoromethyl)piperidin-1-yl)phenyl)-1H-indole-2,6-diamine] it is 0.1 to 100 nM.

Staying with this assay, now noted: Homo sapiens; HT-1080 cells treated with RSL3; 3-fold, 10-point dilution, 1.1 μM highest concentration; Table 3; read-out: EC50 (nM), ferroptosis inhibitory activity.
Regarding `O=C1COc2cc(Nc3ccc(N4CCC(C(F)(F)F)CC4)cc3)cnc2N1` [Compound 450, 7-((4-(4-(trifluoromethyl)piperidin-1-yl)phenyl)amino)-2H-pyrido[3,2-b][1,4]oxazin-3(4H)-one], the EC50 is 0.1 to 100 nM.
Still for that read-out and setting: the figure for `Cc1cc(N2CCC(C(F)(F)F)CC2)ccc1Nc1ccc2c(C(N)=O)cn(C)c2c1` [Compound 551, 1-methyl-6-((2-methyl-4-(4-(trifluoromethyl)piperidin-1-yl)phenyl)amino)-1H-indole-3-carboxamide] is 0.1 to 100 nM; for `Cc1cc(N2CCC(C(F)(F)F)C2)ccc1Nc1ccc2c(c1)OCCC(=O)N2` (stereo not drawn) [Compound 628, 8-((2-methyl-4-(3-(trifluoromethyl)pyrrolidin-1-yl)phenyl)amino)-2,3-dihydrobenzo[b][1,4]oxazepin-4(5H)-one] it is 0.1 to 100 nM.
On the same count and under the same terms, under `C[C@H]1CN(c2ccc(Nc3ccc4c(c3)OCC(=O)N4)cc2)CCN1CC(F)(F)F` [Compound 581, (S)-7-((4-(3-methyl-4-(2,2,2-trifluoroethyl)piperazin-1-yl)phenyl)amino)-2H-benzo[b][1,4]oxazin-3(4H)-one] stands 0.1 to 100 nM.
Take `Cc1nc(N2CCC(C(F)(F)F)CC2)ccc1Nc1ccc2c(c1)OCC(=O)N2` [Compound 489, 7-((2-methyl-6-(4-(trifluoromethyl)piperidin-1-yl)pyridin-3-yl)amino)-2H-benzo[b][1,4]oxazin-3(4H)-one]: the EC50 is 0.1 to 100 nM.
Still for that read-out and setting: under `COc1cc(Nc2ccc3c(c2)OCC(=O)N3)ccc1N1CCC(C(F)(F)F)CC1` [Compound 485, 7-((3-methoxy-4-(4-(trifluoromethyl)piperidin-1-yl)phenyl)amino)-2H-benzo[b][1,4]oxazin-3(4H)-one] stands 0.1 to 100 nM; under `CC1CN(c2ccc(Nc3ccc4c(c3)OCC(=O)N4)cc2)CC(C(F)(F)F)O1` (stereo not drawn) [Compound 561, 7-((4-(2-methyl-6-(trifluoromethyl)morpholino)phenyl)amino)-2H-benzo[b][1,4]oxazin-3(4H)-one], 0.1 to 100 nM.
The same measure, in the same setting: the figure for `Cc1cc(N2CCN(CC(F)(F)F)CC2)ccc1Nc1ccc2c(c1)OCC(=O)N2` [Compound 569, 7-((2-methyl-4-(4-(2,2,2-trifluoroethyl)piperazin-1-yl)phenyl)amino)-2H-benzo[b][1,4] oxazin-3(4H)-one] is 0.1 to 100 nM; for `COC1CCN(c2ccc(Nc3ccc4c(c3)OCC(=O)N4)c(C)c2)C1` (stereo not drawn) [Compound 618, 7-{[4-(3-methoxypyrrolidin-1-yl)-2-methylphenyl]amino}-2,4-dihydro-1,4-benzoxazin-3-one] it is 0.1 to 100 nM.
Consider `Cc1cc(N2CCC(F)(F)CC2)ccc1Nc1ccc2c(c1)OCC(=O)N2` [Compound 525, 7-((4-(4,4-difluoropiperidin-1-yl)-2-methylphenyl)amino)-2H-benzo[b][1,4]oxazin-3(4H)-one], for which the EC50 fell in the range of 0.1 to 100 nM.
On the same count and under the same terms, under `Cc1cc(N2CCC(C(F)(F)F)CC2)ccc1Nc1cnc2c(c1)OCC(=O)N2` [Compound 460, 7-((2-methyl-4-(4-(trifluoromethyl)piperidin-1-yl)phenyl)amino)-2H-pyrido[3,2-b][1,4]oxazin-3(4H)-one] stands 0.1 to 100 nM; under `CCC1Oc2cc(Nc3ccc(N4CCC(C(F)(F)F)CC4)cc3C)ccc2NC1=O` (stereo not drawn) [Compound 483, 2-ethyl-7-((2-methyl-4-(4-(trifluoromethyl)piperidin-1-yl)phenyl)amino)-2H-benzo[b][1,4]oxazin-3(4H)-one], 0.1 to 100 nM; under `Cc1cc(N2CCC(C(F)(F)F)CC2)ccc1Nc1ccc2c(c1)COCC(=O)N2` [Compound 650, 7-((2-methyl-4-(4-(trifluoromethyl)piperidin-1-yl)phenyl)amino)-1,5-dihydrobenzo[e][1,4]oxazepin-2(3H)-one], 0.1 to 100 nM.
The same measure, in the same setting: the figure for `CN1C(=O)COc2cc(Nc3ccc(N4CCC(C(F)(F)F)CC4)cc3)c(N)cc21` [Compound 469, 6-amino-4-methyl-7-((4-(4-(trifluoromethyl)piperidin-1-yl)phenyl)amino)-2H-benzo[b][1,4]oxazin-3(4H)-one] is 0.1 to 100 nM.
